The text below walks through data of patent US20230365592A1 (Agios Pharmaceuticals, Inc., priority 2022, published 2023).

A word on the AC50: it is the midpoint of the concentration-response curve, whichever way the signal moves.

In one experiment the target is T1, human PAH with the R408W mutation (Homo sapiens, UniProt P00439, R408W).
T1 construct: expressed in transfected cells
T1 sequence (P00439 1-452 R408W): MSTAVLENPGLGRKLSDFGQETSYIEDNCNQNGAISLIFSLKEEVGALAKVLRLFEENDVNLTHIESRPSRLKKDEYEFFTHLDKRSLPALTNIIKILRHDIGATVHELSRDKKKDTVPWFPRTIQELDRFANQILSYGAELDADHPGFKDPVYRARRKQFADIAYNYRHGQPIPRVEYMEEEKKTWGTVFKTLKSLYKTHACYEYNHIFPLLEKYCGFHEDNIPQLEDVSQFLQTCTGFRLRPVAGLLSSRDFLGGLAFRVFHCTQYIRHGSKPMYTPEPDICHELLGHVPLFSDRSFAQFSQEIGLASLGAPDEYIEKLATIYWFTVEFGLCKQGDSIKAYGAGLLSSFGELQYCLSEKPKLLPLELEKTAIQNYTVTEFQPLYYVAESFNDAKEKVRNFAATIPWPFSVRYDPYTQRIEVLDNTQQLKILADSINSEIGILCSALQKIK
Nature of the experiment: Cell Based Phenylalanine Flux Assay.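 Further: after compound treatment, cells received sepiapterin plus isotope-labelled Phenylalanine for 4 hours, then labelled Tyrosine in the medium was quantified, 10-point 2-fold dilution series run in duplicate.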 The conditions noted are these: A375 cells expressing R408W PAH; 24 hrs with compound, then 20 µM sepiapterin and 800 µM 13C9,15N-Phenylalanine for 4 hours; 13C-Tyrosine by LC-MS; average where tested multiple times; read-out: AC50.
Consider `Cc1c(C2c3nc[nH]c3CCN2C(=O)c2nnc(-c3ccccn3)o2)nn2ccccc12` (stereo not shown), for which the AC50 fell in the range of 1 to 5 µM. On the same count and under the same terms, the same measure for `COc1cccn2nc(C3c4nc[nH]c4CCN3C(=O)c3cnn4cc(-c5cnn(C)c5)ccc34)cc12` (stereo not shown) [listing 1 of 2 here]: 1 to 5 µM. Take `COc1cccn2nc(C3c4nc[nH]c4CCN3C(=O)c3cnn4cc(N(C)C)ccc34)cc12` (stereo not shown): the AC50 was more than 5 µM. The same measure, in the same setting: as for `Cc1cccn2nc(C3c4nc[nH]c4CCN3c3cnn(C)c3)cc12` (stereo not shown), the figure is 1 to 5 µM; as for `Cc1cccn2nc(C3c4nc[nH]c4CCN3C(=O)c3nnc(-c4cn[nH]c4)o3)cc12` (stereo not shown), 1 to 5 µM. Still for that read-out and setting: the same measure for `Cc1cccc2cc(C3c4nc[nH]c4CCN3C(=O)c3cnco3)nn12` (stereo not shown): 1 to 5 µM; for `Cn1cc(-c2ncc(C(=O)N3CCc4[nH]cnc4C3c3cc4c(F)cccn4n3)o2)cn1` (stereo not shown): 1 to 5 µM; for `COc1cccn2nc(C3c4nc[nH]c4CCN3C(=O)c3cnn4cc(-c5cnn(C)c5)ccc34)cc12` (stereo not shown) [listing 2 of 2 here]: more than 5 µM.

With `Cc1nnc(C(=O)N2CCc3[nH]cnc3C2c2cc3ccc(C(F)(F)F)cn3n2)o1` (stereo not shown), the AC50 was in the range of 1 to 5 µM. Still for that read-out and setting: as for `O=C(c1cnn2ccccc12)N1CCc2[nH]cnc2C1c1cc2cccc(C(F)F)n2n1` (stereo not shown), the figure is 1 to 5 µM; as for `Cc1nc(-c2ccccn2)oc1C(=O)N1CCc2[nH]cnc2[C@H]1c1cc2ccccn2n1` (single isomer, unassigned), 1 to 5 µM. The same measure, in the same setting: the same measure for `Cn1nc(C(C)(C)C)cc1C(=O)N1CCc2[nH]cnc2C1c1cc2ccccn2n1` (stereo not shown): 1 to 5 µM; for `CN(C)Cc1ccc2c(C(=O)N3CCc4[nH]cnc4C3c3cc4cccc(C(F)F)n4n3)cnn2c1` (stereo not shown): 1 to 5 µM. The same measure, in the same setting: as for `Nc1ccc(N2CCc3[nH]cnc3C2c2cc3c(C(F)F)cccn3n2)nc1` (stereo not shown), the figure is 1 to 5 µM; as for `Cc1nc(C(=O)N2CCc3[nH]cnc3C2c2cc3cccc(Cl)n3n2)n(C)n1` (stereo not shown), more than 5 µM.

Staying with this experiment, now noted: A375 cells expressing human PAH R408W; 24 hrs compound incubation; 13C-Tyrosine by LC-MS; average where tested multiple times; read-out: AC50.
Turning to `c1cc(C2CC2)c2cc([C@@H]3c4nc[nH]c4CCN3c3nnc(C4CC4)o3)nn2c1` [Example 2059, (S)-2-cyclopropyl-5-(4-(4-cyclopropylpyrazolo[1,5-a]pyridin-2-yl)-1,4,6,7-tetrahydro-5H-imidazo[4,5-c]pyridin-5-yl)-1,3,4-oxadiazole], the AC50 lay within 0.5 to 1 µM.

On to `CN(C)CCc1ccc2c(C(=O)N3CCc4[nH]cnc4[C@H]3c3cc4c(C(F)(F)F)cccn4n3)cnn2c1` [Example 2476, (S)-(6-(2-(dimethylamino)ethyl)pyrazolo[1,5-a]pyridin-3-yl)(4-(4-(trifluoromethyl)pyrazolo[1,5-a]pyridin-2-yl)-6,7-dihydro-1H-imidazo[4,5-c]pyridin-5(4H)-yl)methanone], for which the AC50 was in the range of 1 to 5 µM. With `Cc1cccc2cc([C@H]3c4nc[nH]c4CCN3c3ccc(C(F)(F)F)cn3)nn12` [Example 2096, (R)-4-(7-methylpyrazolo[1,5-a]pyridin-2-yl)-5-(5-(trifluoromethyl)pyridin-2-yl)-4,5,6,7-tetrahydro-1H-imidazo[4,5-c]pyridine], the AC50 is more than 5 µM. Still for that read-out and setting: as for `Cc1c(-c2ncc(C(=O)N3CCc4[nH]cnc4[C@H]3c3cc4c(F)cccn4n3)o2)cnn1C` [Example 2066, (S)-(2-(1,5-dimethyl-1H-pyrazol-4-yl)oxazol-5-yl)(4-(4-fluoropyrazolo[1,5-a]pyridin-2-yl)-1,4,6,7-tetrahydro-5H-imidazo[4,5-c]pyridin-5-yl)methanone], the figure is 0.5 to 1 µM; as for `Cc1cccc2cc([C@H]3c4nc[nH]c4CCN3c3nnc(C(F)(F)F)o3)nn12` [Example 1851, (R)-2-(4-(7-methylpyrazolo[1,5-a]pyridin-2-yl)-6,7-dihydro-1H-imidazo[4,5-c]pyridin-5(4H)-yl)-5-(trifluoromethyl)-1,3,4-oxadiazole], 1 to 5 µM. With `O=C(c1nc2ccccc2o1)N1CCc2[nH]cnc2[C@@H]1c1cc2c(C(F)F)cccn2n1` [Example 2053, (R)-benzo[d]oxazol-2-yl(4-(4-(difluoromethyl)pyrazolo[1,5-a]pyridin-2-yl)-1,4,6,7-tetrahydro-5H-imidazo[4,5-c]pyridin-5-yl)methanone], the AC50 was more than 5 µM.

Staying with this experiment, now noted: A375 cells expressing human R408W PAH; 24 hrs compound incubation; 13C-Tyrosine by LC-MS; average where tested multiple times; read-out: AC50.
In the case of `CC(C)(F)c1nnc(C(=O)N2CCc3[nH]cnc3[C@H]2c2cc3ccc(F)cn3n2)o1` [Example 1114, (S)-(5-(2-fluoropropan-2-yl)-1,3,4-oxadiazol-2-yl)(4-(6-fluoropyrazolo[1,5-a]pyridin-2-yl)-6,7-dihydro-1H-imidazo[4,5-c]pyridin-5(4H)-yl)methanone], the AC50 is 0.5 to 1 µM. For `COc1ccc2c(C(=O)N3CCc4[nH]cnc4[C@@H]3c3cc4c(Cl)cccn4n3)cnn2c1` [Example 1699, (R)-(4-(4-chloropyrazolo[1,5-a]pyridin-2-yl)-6,7-dihydro-1H-imidazo[4,5-c]pyridin-5(4H)-yl)(6-methoxypyrazolo[1,5-a]pyridin-3-yl)methanone], the AC50 is more than 5 µM. Still for that read-out and setting: the same measure for `CC(C)(O)c1nc(C(F)F)c(C(=O)N2CCc3[nH]cnc3[C@@H]2c2cc3ccccn3n2)o1` [Example 671, (R)-(4-(difluoromethyl)-2-(2-hydroxypropan-2-yl)oxazol-5-yl)(4-(pyrazolo[1,5-a]pyridin-2-yl)-6,7-dihydro-1H-imidazo[4,5-c]pyridin-5(4H)-yl)methanone]: more than 5 µM; for `Cc1nn(C)cc1-c1nnc(C(=O)N2CCc3[nH]cnc3[C@@H]2c2cc3c(C)cccn3n2)o1` [Example 845, (R)-(5-(1,3-dimethyl-1H-pyrazol-4-yl)-1,3,4-oxadiazol-2-yl)(4-(4-methylpyrazolo[1,5-a]pyridin-2-yl)-6,7-dihydro-1H-imidazo[4,5-c]pyridin-5(4H)-yl)methanone]: more than 5 µM; for `COc1ccc(-c2nnc(C(=O)N3CCc4[nH]cnc4[C@@H]3c3cc4cccc(C(F)(F)F)n4n3)o2)cn1` [Example 1345, (R)-(5-(6-methoxypyridin-3-yl)-1,3,4-oxadiazol-2-yl)(4-(7-(trifluoromethyl)pyrazolo[1,5-a]pyridin-2-yl)-6,7-dihydro-1H-imidazo[4,5-c]pyridin-5(4H)-yl)methanone]: 1 to 5 µM. Take `CC(C)c1nnc(C(=O)N2CCc3[nH]cnc3[C@H]2c2cc3c(F)cccn3n2)o1` [Example 1452, (S)-(4-(4-fluoropyrazolo[1,5-a]pyridin-2-yl)-6,7-dihydro-1H-imidazo[4,5-c]pyridin-5(4H)-yl)(5-isopropyl-1,3,4-oxadiazol-2-yl)methanone]: the half-maximal activity concentration (AC50) is less than 0.5 µM.

Regarding `CCOc1cccc2cc([C@H]3c4nc[nH]c4CCN3C(=O)c3ocnc3C(F)F)nn12` [Example 1241, (R)-(4-(difluoromethyl)oxazol-5-yl)(4-(7-ethoxypyrazolo[1,5-a]pyridin-2-yl)-6,7-dihydro-1H-imidazo[4,5-c]pyridin-5(4H)-yl)methanone], the AC50 lay in the range of 1 to 5 µM. The same measure, in the same setting: the same measure for `O=C(c1nnc(-c2ccn(C(F)F)n2)o1)N1CCc2[nH]cnc2[C@@H]1c1cc2cccc(F)n2n1` [Example 1404, (R)-(5-(1-(difluoromethyl)-1H-pyrazol-3-yl)-1,3,4-oxadiazol-2-yl)(4-(7-fluoropyrazolo[1,5-a]pyridin-2-yl)-6,7-dihydro-1H-imidazo[4,5-c]pyridin-5(4H)-yl)methanone]: 1 to 5 µM.

Consider `Cc1cccn2nc([C@H]3c4nc[nH]c4CCN3C(=O)c3oc(C(C)(C)F)nc3C(F)F)cc12` [Example 1217, (R)-(4-(difluoromethyl)-2-(2-fluoropropan-2-yl)oxazol-5-yl)(4-(4-methylpyrazolo[1,5-a]pyridin-2-yl)-6,7-dihydro-1H-imidazo[4,5-c]pyridin-5(4H)-yl)methanone], for which the AC50 was less than 0.5 µM. On the same count and under the same terms, as for `Cc1cccc(-c2nnc(C(=O)N3CCc4[nH]cnc4[C@H]3c3cc4cccc(C(F)F)n4n3)o2)n1` [Example 1594, (S)-(4-(7-(difluoromethyl)pyrazolo[1,5-a]pyridin-2-yl)-6,7-dihydro-1H-imidazo[4,5-c]pyridin-5(4H)-yl)(5-(6-methylpyridin-2-yl)-1,3,4-oxadiazol-2-yl)methanone], the figure is less than 0.5 µM; as for `O=C(c1nnc(C2CC2)o1)N1CCc2[nH]cnc2[C@H]1c1cc2c(F)cccn2n1` [Example 946, (S)-(5-cyclopropyl-1,3,4-oxadiazol-2-yl)(4-(4-fluoropyrazolo[1,5-a]pyridin-2-yl)-6,7-dihydro-1H-imidazo[4,5-c]pyridin-5(4H)-yl)methanone], less than 0.5 µM. Same read-out and setting: the same measure for `C[C@@H](O)c1nc(C(F)F)c(C(=O)N2CCc3[nH]cnc3[C@@H]2c2cc3cccc(Cl)n3n2)o1` [Example 1197, ((R)-4-(7-chloropyrazolo[1,5-a]pyridin-2-yl)-6,7-dihydro-1H-imidazo[4,5-c]pyridin-5(4H)-yl)(4-(difluoromethyl)-2-((R)-1-hydroxyethyl)oxazol-5-yl)methanone]: 1 to 5 µM; for `COc1ccc2c(C(=O)N3CCc4[nH]cnc4[C@H]3c3cc4c(C(F)F)cccn4n3)cnn2c1` [Example 1676, (S)-(4-(4-(difluoromethyl)pyrazolo[1,5-a]pyridin-2-yl)-6,7-dihydro-1H-imidazo[4,5-c]pyridin-5(4H)-yl)(6-methoxypyrazolo[1,5-a]pyridin-3-yl)methanone]: 0.5 to 1 µM.
